{"source": "patent US9040498B2", "about": "“1,2,3-Triazolyl purine derivatives” (RESEARCH FOUNDATION OF THE CITY UNIVERSITY OF NEW YORK, priority 2012, dated 2015)", "key": {"[1]": {"test_system": "paclitaxel-resistant (PTX10) ovarian cancer cell line", "experiment": "GI50 against paclitaxel-resistant ovarian cancer cell line PTX10", "settings": "PTX10, 96 h, read-out: GI50 PTX10"}, "[2]": {"test_system": "canine kidney MDCK"}, "[3]": {"test_system": "CMV Davis strain", "experiment": "Anti-CMV activity in HEL cell cultures, Davis strain", "assay_type": "cell-based, cytomegalovirus", "settings": "Human betaherpesvirus 5; HEL cell cultures; reduce virus plaque formation by 50%; virus input 100 PFU"}, "[4]": {"test_system": "HeLa"}, "[5]": {"test_system": "HEL cell", "experiment": "HEL cell effects: cell morphology (minimum cytotoxic concentration)", "settings": "minimum cytotoxic concentration causing microscopically detectable alteration of cell morphology"}, "[6]": {"test_system": "murine leukemia L1210, human lymphocyte CEM, and HeLa cells", "experiment": "Cytostatic activity against L1210, CEM and HeLa cells", "assay_type": "cell-based", "method": "The cytostatic effects of the test compounds on murine leukemia cells (L1210), human T-lymphocyte cells (CEM) and human cervix carcinoma cells (HeLa) were evaluated as follows: an appropriate number of cells suspended in growth medium were allowed to proliferate in 200-μL-wells of 96-well-microtiter plates in the presence of variable amounts of test compounds at 37° C. in a humidified CO2-controlled atmosphere. After 48 h (L1210), 72 h (CEM) or 96 h (HeLa), the number of cells was counted in a Coulter counter. The IC50 value is defined as the concentration required to inhibit cell proliferation by 50%."}, "[7]": {"test_system": "colorectal (HCT116) cancer cell line", "experiment": "GI50 against colorectal cancer cell line HCT116", "settings": "Homo sapiens, HCT-116, 96 h, read-out: GI50 HCT116"}, "[8]": {"test_system": "green monkey kidney Vero"}, "[9]": {"test_system": "ovarian (1A9) cancer cell line", "experiment": "GI50 against ovarian cancer cell line 1A9", "settings": "96 h, read-out: GI50 1A9"}, "[10]": {"test_system": "p53KO HCT116 cancer cell line", "experiment": "GI50 against p53KO HCT116 cancer cell line", "settings": "Homo sapiens, HCT-116, 96 h, read-out: GI50 p53KO"}, "[11]": {"test_system": "CMV AD-169 strain", "experiment": "Anti-CMV activity in HEL cell cultures, AD-169 strain", "assay_type": "cell-based, cytomegalovirus", "settings": "Human betaherpesvirus 5, AD169; HEL cell cultures; reduce virus plaque formation by 50%; virus input 100 PFU"}, "[12]": {"test_system": "feline kidney CRFK"}, "[13]": {"test_system": "paclitaxel-resistant (PTX22) ovarian cancer cell line", "experiment": "GI50 against paclitaxel-resistant ovarian cancer cell line PTX22", "settings": "96 h, read-out: GI50 PTX22"}}, "note": "Read-outs that look alike come from different tables or passages of the source."}
{"smiles": "OC[C@H]1O[C@@H](n2cnc3c(N4CCOCC4)nc(-n4cc(-c5ccccc5)nn4)nc32)[C@@H](O)C1O", "note": "(stereo partly drawn) [Compound 34, 6-(Morpholin-4-yl)-2-(4-phenyl-1,2,3-triazol-1H-yl)-9-(β-D-ribofuranosyl)purine]", "values": [{"measurement": "GI50", "setting": "[1]", "value": 11.7, "unit": "µM"}, {"measurement": "minimum detectable morphology-altering (cytotoxic) concentration (MCC)", "setting": "[2]", "value": 8.3, "unit": "μM"}, {"measurement": "EC50", "setting": "[3]", "value": "> 40", "unit": "µM"}, {"measurement": "minimum detectable morphology-altering (cytotoxic) concentration (MCC)", "setting": "[4]; HeLa (first mention)", "value": 42, "unit": "μM"}, {"measurement": "minimum detectable morphology-altering (cytotoxic) concentration (MCC)", "setting": "[4]; HeLa cells", "value": "≥ 40", "unit": "μM"}, {"measurement": "HEL cell effects cell morphology (MDC)", "setting": "[5]", "value": 240, "unit": "μM"}, {"measurement": "cytostatic activity (in words)", "setting": "[6]; L1210, CEM, HeLa", "value": "poorly cytostatic"}, {"measurement": "IC50", "setting": "[6]; range over L1210 (48 h), CEM (72 h), HeLa (96 h)", "value": "98 to 185", "unit": "µM"}, {"measurement": "GI50", "setting": "[7]", "value": 3.7, "unit": "µM"}, {"measurement": "minimum detectable morphology-altering (cytotoxic) concentration (MCC)", "setting": "[8]", "value": 210, "unit": "μM"}, {"measurement": "GI50", "setting": "[9]", "value": 0.18, "unit": "µM"}, {"measurement": "GI50", "setting": "[10]", "value": 10.4, "unit": "µM"}, {"measurement": "EC50", "setting": "[11]", "value": "> 40", "unit": "µM"}, {"measurement": "minimum detectable morphology-altering (cytotoxic) concentration (MCC)", "setting": "[12]", "value": 83, "unit": "μM"}, {"measurement": "GI50", "setting": "[13]", "value": 0.95, "unit": "µM"}]}
